# Key:
# BCRP [1] = molecular target: T1, BCRP (Homo sapiens, UniProt Q9UNQ0); test: vanadate-sensitive BCRP ATPase assay (membrane vesicles from MCF-7 cells overexpressing BCRP); assay type: biochemical; set-up: host or cells: MCF-7 cells overexpressing BCRP; settings: […] µM
# T1 sequence (Q9UNQ0 1-655): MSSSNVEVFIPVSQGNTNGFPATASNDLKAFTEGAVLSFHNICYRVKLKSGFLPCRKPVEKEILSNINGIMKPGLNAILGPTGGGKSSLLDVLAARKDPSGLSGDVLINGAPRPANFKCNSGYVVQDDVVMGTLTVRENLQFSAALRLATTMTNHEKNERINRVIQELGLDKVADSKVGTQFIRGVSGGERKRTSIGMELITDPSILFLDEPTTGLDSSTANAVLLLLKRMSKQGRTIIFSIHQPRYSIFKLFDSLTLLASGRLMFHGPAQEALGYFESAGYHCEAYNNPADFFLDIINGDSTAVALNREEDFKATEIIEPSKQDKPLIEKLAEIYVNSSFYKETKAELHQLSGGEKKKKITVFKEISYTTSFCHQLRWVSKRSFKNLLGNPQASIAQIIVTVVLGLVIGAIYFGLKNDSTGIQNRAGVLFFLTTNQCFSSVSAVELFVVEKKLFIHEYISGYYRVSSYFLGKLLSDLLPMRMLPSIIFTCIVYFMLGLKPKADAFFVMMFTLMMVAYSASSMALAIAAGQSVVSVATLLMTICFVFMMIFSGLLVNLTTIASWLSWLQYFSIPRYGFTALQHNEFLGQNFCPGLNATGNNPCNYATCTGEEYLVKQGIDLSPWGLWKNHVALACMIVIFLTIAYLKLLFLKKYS
# Protocol: To assess the interaction between ASMs and BCRP, a vanadate‐sensitive ATPase assay was performed as per the manufacturer's instructions manual. […] After 10 min, 1x developer solution was added and kept for 2 min. To stop the reaction, 100 µL blocker solution was added and incubated for 30 min. at 37°C. The optical densities were measured at 620 nm using an Infinite 200 PRO NanoQuant (Tecan, Zurich, Switzerland) plate reader. 1 μM Ko143 was used as a positive control for BCRP inhibition. Ko143 was used at a concentration that is known to inhibit BCRP efficiently. The results were expressed as vanadate‐sensitive ATPase activity that is based on the difference in inorganic phosphate released between samples with and without vanadate. This will evaluate the ability of the test ASM to stimulate BCRP's baseline ATPase activity.
# [2] = set-up: method as in Johannessen, 2004; Patsalos, 2008; Lee, 2016; settings: patients with epilepsy; ref Johannessen, 2004; Patsalos, 2008; Lee, 2016; cited from earlier work
# BCRP [3] = molecular target: T1, BCRP; test: bidirectional transport assay across hCMEC/D3 cell monolayer with or without Ko143; settings: for transport by BCRP (conclusion of bidirectional transport assay): ER ≥ 1.5 and significantly reduced by Ko143; for Papp A→B at 2 h, 40 μM / Papp A→B at 2 h, 80 μM / Papp B→A at 2 h, 40 μM / Papp B→A at 2 h, 80 μM / efflux ratio at 2 h, 40 μM / efflux ratio at 2 h, 80 μM / Papp A→B at 2 h, 300 µM / Papp A→B at 2 h, 600 μM / Papp B→A at 2 h, 300 µM / Papp B→A at 2 h, 600 μM / efflux ratio at 2 h / efflux ratio at 2 h, 300 µM / efflux ratio at 2 h, 600 μM: human
# Protocol: For transport assays, hCMEC/D3 cells were seeded on collagen type I‐coated Transwell inserts (polycarbonate 12‐well, pore size […]) (cat. no. CLS3460; Corning, NY, USA) at 80% confluency and cultured as described in section 2.5. In brief, the drug was dissolved in Hanks’ balanced salt solution supplemented with 10 mM HEPES, 1 mM Na‐Pyruvate, pH 7.4 at 37°C (transport buffer). Initially, both sides of the chamber were washed with 1X PBS and the assay was performed with pre‐warmed transport buffer. 0.5 ml or 1.5 ml of the drug solution, with or without BCRP‐specific inhibitor Ko143 (1 μM) was added to either the apical side or basolateral side of the monolayer, respectively, and fresh transport buffer was added to the opposite side. Aliquots of 100 μl samples were taken from the opposite sides every 30 min for 2 h, and the same amount of fresh transport buffer was added to the same chamber after each sampling. […] Concentrations of ASMs were evaluated by HPLC or LC/MS. Apparent permeability (Papp) is defined as the transport rate of ASM and efflux ratio (ER) was calculated as the ratio of Papp in the basolateral‐to‐apical (Papp(B→A)) direction to the Papp in the apical‐to‐basolateral (Papp(A→B)) direction. The samples were stored at −20°C until analysis. […] Fluorescence detection of lucifer yellow (excitation at 430 nm, and emission at 535 nm) was carried out with Infinite 200 PRO NanoQuant (Tecan, Zurich, Switzerland). […] All transport assays were performed in triplicate.
# The calculation for apparent permeability coefficient, Papp, was performed as described before. Papp=dQr/dt/A×C0 where dQr/dt is the cumulative amount in the receiver side vs time in μM/s
# A is the area of the cell monolayer
# C0 is the initial concentration of the dosing solution (μM).
# And, Efflux ratio=Papp(B−to−A)/Papp(A−to−B)
# BCRP [4] = molecular target: T1, BCRP; test: competitive substrate efflux assay (BODIPY-prazosin accumulation) in hCMEC/D3 cells; assay type: cell-based; settings: 1 and 10 µM
# Protocol: The potential of ASMs to compete with a known fluorescent substrate of BCRP, BPZ in hCMEC/D3 cells was examined using a competitive substrate efflux assay that has previously been used in various studies. The interaction of CBZ, DCLB, OXC, TPM, and LEVI with BCRP was evaluated. Initially, hCMEC/D3 were seeded in 12‐well plates (cat. no. 150628, Nunc, Thermo Fisher Scientific, MA, USA) at 70‐80% confluency for 24 h. In this study, Ko143 was used for BCRP inhibition. The cultured cells were incubated at 37°C for half an hour in media containing BPZ with either the test ASMs or Ko143. Cells were washed with chilled 1X PBS three times and again incubated at 37°C for 1 h 30 min in BPZ‐free media with or without Ko143. Cells were washed three times with ice‐cold 1X PBS to terminate the assay. Cell lysis was performed by adding 1% triton X‐100, followed by incubating the cells for 15 min at 37°C. 20 µl of cell lysate was placed in 384‐well black assay plates for fluorescence detection (excitation at 488 nm; emission at 530 nm) to Infinite 200 PRO NanoQuant (Tecan, Zurich, Switzerland). The rest of the cell lysate was used for determining protein levels using the BCA protein estimation method to normalize the observed fluorescence intensity with total protein yield. The data were shown as a fold increment in intracellular fluorescence of BPZ relative to the control.
# BCRP [5] = molecular target: T1, BCRP; settings: previous data; cited from earlier work
# BCRP [6] = molecular target: T1, BCRP; set-up: host or cells: MCF-7 cells overexpressing BCRP; settings: previous study; cited from earlier work
# [7] = 5 μM, hCMEC/D3 monolayer, 1 μM Ko143
# [8] = 10 μM, hCMEC/D3 monolayer, 1 μM Ko143
smiles,measurement,setting,value
"O=C1CC(=O)N(c2ccccc2)c2cc(Cl)ccc2N1 [DCLB, N‐desmethyl clobazam]",stimulation of BCRP ATPase activity (activation assay),BCRP [1],significantly stimulated
same,Therapeutic plasma concentration range,[2],1 to 10 µM
same,"Efflux ratio (ER), hCMEC/D3 without inhibitor Ko143","BCRP [3]; 5 μM, hCMEC/D3 monolayer",2
same,"Papp A-->B, hCMEC/D3 without inhibitor Ko143","BCRP [3]; 5 μM, hCMEC/D3 monolayer",2.83 ×10⁻⁶ cm/s
same,"Papp B-->A, hCMEC/D3 without inhibitor Ko143","BCRP [3]; 5 μM, hCMEC/D3 monolayer",5.66 ×10⁻⁶ cm/s
same,"Efflux ratio (ER), hCMEC/D3 with inhibitor Ko143",BCRP [3]; [7],~1
same,"Papp A-->B, hCMEC/D3 with inhibitor Ko143",BCRP [3]; [7],5.66 ×10⁻⁶ cm/s
same,"Papp B-->A, hCMEC/D3 with inhibitor Ko143",BCRP [3]; [7],5.66 ×10⁻⁶ cm/s
same,"Efflux ratio (ER), hCMEC/D3 without inhibitor Ko143","BCRP [3]; 5 μM, hCMEC/D3 monolayer, listed as N‐desmethyl clobazam",2.0
same,"Efflux ratio (ER), hCMEC/D3 without inhibitor Ko143","BCRP [3]; 10 μM, hCMEC/D3 monolayer",2
same,"Papp A-->B, hCMEC/D3 without inhibitor Ko143","BCRP [3]; 10 μM, hCMEC/D3 monolayer",2.83 ×10⁻⁶ cm/s
same,"Papp B-->A, hCMEC/D3 without inhibitor Ko143","BCRP [3]; 10 μM, hCMEC/D3 monolayer",5.66 ×10⁻⁶ cm/s
same,"Efflux ratio (ER), hCMEC/D3 with inhibitor Ko143",BCRP [3]; [8],~1
same,"Papp A-->B, hCMEC/D3 with inhibitor Ko143",BCRP [3]; [8],2.83 ×10⁻⁶ cm/s
same,"Papp B-->A, hCMEC/D3 with inhibitor Ko143",BCRP [3]; [8],2.83 ×10⁻⁶ cm/s
same,"Efflux ratio (ER), hCMEC/D3 without inhibitor Ko143","BCRP [3]; 10 μM, hCMEC/D3 monolayer, listed as N‐desmethyl clobazam",2.0
same,Efflux ratio (ER) without inhibitor,"BCRP [3]; at all the tested concentrations, hCMEC/D3 monolayer",above 1.5
same,Efflux ratio (ER) in the presence of Ko143,"BCRP [3]; at all the tested concentrations, hCMEC/D3 monolayer, 1 μM Ko143",~1
same,transport by BCRP (conclusion of bidirectional transport assay),BCRP [3]; hCMEC/D3 monolayer,transports
same,BPZ accumulation in hCMEC/D3 cells,BCRP [4],significantly increased
"O=C1NC(=O)C(c2ccccc2)(c2ccccc2)N1 [PHT, phenytoin]",BPZ accumulation in competitive substrate efflux assay in hCMEC/D3 cells,BCRP [5],increased BPZ accumulation
same,stimulation of BCRP ATPase activity,BCRP [6],stimulated
same,Therapeutic plasma concentration range,[2],40 to 80 µM
same,"Efflux ratio (ER), hCMEC/D3 without inhibitor Ko143","BCRP [3]; 80 μM, hCMEC/D3 monolayer",1.53
same,transport by BCRP (conclusion of bidirectional transport assay),BCRP [3]; hCMEC/D3 monolayer,not
same,"Papp A→B at 2 h, 40 μM",BCRP [3]; pH 7.4,2.12 ×10⁻⁶ cm/s
same,"Papp A→B at 2 h, 80 μM",BCRP [3]; pH 7.4,3.09 ×10⁻⁶ cm/s
same,"Papp B→A at 2 h, 40 μM",BCRP [3]; pH 7.4,2.59 ×10⁻⁶ cm/s
same,"Papp B→A at 2 h, 80 μM",BCRP [3]; pH 7.4,3.36 ×10⁻⁶ cm/s
same,"efflux ratio at 2 h, 40 μM","BCRP [3]; pH 7.4, Efflux ratio (ER), hCMEC/D3 without inhibitor Ko143, 40 μM, hCMEC/D3 monolayer",1.28
same,"efflux ratio at 2 h, 80 μM","BCRP [3]; pH 7.4, Efflux ratio (ER), hCMEC/D3 without inhibitor Ko143, 80 μM, hCMEC/D3 monolayer",1.5
same,"Papp A→B at 2 h, 40 μM","BCRP [3]; pH 7.4, with Ko143 1 μM",2.71 ×10⁻⁶ cm/s
same,"Papp A→B at 2 h, 80 μM","BCRP [3]; pH 7.4, with Ko143 1 μM",2.03 ×10⁻⁶ cm/s
same,"Papp B→A at 2 h, 40 μM","BCRP [3]; pH 7.4, with Ko143 1 μM",3.07 ×10⁻⁶ cm/s
same,"Papp B→A at 2 h, 80 μM","BCRP [3]; pH 7.4, with Ko143 1 μM",2.12 ×10⁻⁶ cm/s
same,"efflux ratio at 2 h, 40 μM","BCRP [3]; pH 7.4, with Ko143 1 μM, Efflux ratio (ER), hCMEC/D3 with inhibitor Ko143, 40 μM, hCMEC/D3 monolayer, 1 μM Ko143",1.17
same,"efflux ratio at 2 h, 80 μM","BCRP [3]; pH 7.4, with Ko143 1 μM, Efflux ratio (ER), hCMEC/D3 with inhibitor Ko143, 80 μM, hCMEC/D3 monolayer, 1 μM Ko143",1.31
"CCCC(CCC)C(=O)O [VPA, valproic acid]",BPZ accumulation in competitive substrate efflux assay in hCMEC/D3 cells,BCRP [5],increased BPZ accumulation
same,stimulation of BCRP ATPase activity,BCRP [6],stimulated
same,Therapeutic plasma concentration range,[2],300 to 600 µM
same,transport by BCRP (conclusion of bidirectional transport assay),BCRP [3]; hCMEC/D3 monolayer,transports
same,"Papp A→B at 2 h, 300 µM",BCRP [3]; pH 7.4,0.19 ×10⁻⁶ cm/s
same,"Papp A→B at 2 h, 600 μM",BCRP [3]; pH 7.4,0.34 ×10⁻⁶ cm/s
same,"Papp B→A at 2 h, 300 µM",BCRP [3]; pH 7.4,0.31 ×10⁻⁶ cm/s
same,"Papp B→A at 2 h, 600 μM",BCRP [3]; pH 7.4,0.64 ×10⁻⁶ cm/s
same,efflux ratio at 2 h,"BCRP [3]; pH 7.4, Efflux ratio (ER) without inhibitor, at all the tested concentrations, hCMEC/D3 monolayer",> 1.5
same,"efflux ratio at 2 h, 300 µM","BCRP [3]; pH 7.4, Efflux ratio (ER), hCMEC/D3 without inhibitor Ko143, 300 μM, hCMEC/D3 monolayer",> 1.5
same,"efflux ratio at 2 h, 600 μM","BCRP [3]; pH 7.4, Efflux ratio (ER), hCMEC/D3 without inhibitor Ko143, 600 μM, hCMEC/D3 monolayer",> 1.5
same,"Papp A→B at 2 h, 300 µM","BCRP [3]; pH 7.4, with Ko143 1 μM",0.21 ×10⁻⁶ cm/s
same,"Papp A→B at 2 h, 600 μM","BCRP [3]; pH 7.4, with Ko143 1 μM",0.33 ×10⁻⁶ cm/s
same,"Papp B→A at 2 h, 300 µM","BCRP [3]; pH 7.4, with Ko143 1 μM",0.24 ×10⁻⁶ cm/s
same,"Papp B→A at 2 h, 600 μM","BCRP [3]; pH 7.4, with Ko143 1 μM",0.37 ×10⁻⁶ cm/s
same,efflux ratio at 2 h,"BCRP [3]; pH 7.4, with Ko143 1 µM, Efflux ratio (ER) in the presence of Ko143, at all the tested concentrations, hCMEC/D3 monolayer, 1 μM Ko143",~1
same,"efflux ratio at 2 h, 300 µM","BCRP [3]; pH 7.4, with Ko143 1 µM, Efflux ratio (ER), hCMEC/D3 with inhibitor Ko143, 300 μM, hCMEC/D3 monolayer, 1 μM Ko143",1.1
same,"efflux ratio at 2 h, 600 μM","BCRP [3]; pH 7.4, with Ko143 1 μM, Efflux ratio (ER), hCMEC/D3 with inhibitor Ko143, 600 μM, hCMEC/D3 monolayer, 1 μM Ko143",1.14

# — paper PMC12555108, “In‐vitro Assessment of BCRP‐Mediated Efflux of Antiseizure Medications in Human Blood‐Brain Barrier Cell Model” (Journal of Biochemical and Molecular Toxicology, 2025)
